Among the data in patent publication US8637558B2 (Industry-Academic Cooperation Foundation, Chosun University, priority 2008, dated 2014) are IC50 values, retold here.

The structures appear in SMILES notation.

Sequence of 15-PGDH (P15428 whole entry): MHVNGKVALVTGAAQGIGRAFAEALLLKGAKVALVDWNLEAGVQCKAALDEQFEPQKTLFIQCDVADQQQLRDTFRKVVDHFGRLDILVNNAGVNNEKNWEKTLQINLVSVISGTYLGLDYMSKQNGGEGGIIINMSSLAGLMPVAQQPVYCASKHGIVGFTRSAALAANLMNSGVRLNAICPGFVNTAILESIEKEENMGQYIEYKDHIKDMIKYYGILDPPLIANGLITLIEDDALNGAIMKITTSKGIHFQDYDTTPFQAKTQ

This assay concerns the target 15-PGDH (Homo sapiens (Human), UniProt P15428). Put plainly: Assay for the activities of 15-PGDH inhibitors (formation of NADH at 340 nm). The class given is biochemical. The conditions noted are these: purified 15-PGDH enzyme, 21 μM PGE2, 0.25 mM NAD+, pH 7.5; concentration inhibiting 50% of 15-PGDH activity. The protocol:
<1-1> Expression and Purification of 15-PGDH
A 15-PGDH cDNA plasmid containing BamHI and EcoRI sites of the pGES-2T expression vector was used to transform Escherichia coli BL-21 lysS in accordance with the ordinarily used in the art. The transformed cells were grown in 500 mL LB medium containing 50 μg/mL ampicillin at 37° C. while being stirred at 220 rpm until the OD600 reached 0.6. Isopropyl β-D-thiogalactoside (1 mM) was added and the cells were allowed to grow for 12 hours at 25° C. Then, the pellets were harvested by centrifugation at 4000×g for 30 minutes at 4° C. The cell pallets were resuspended in 20 mL cell lysis buffer (1×PBS buffer (pH 7.4) containing 1 mM EDTA and 0.1 mM DTT) and sonicated (14×10 s at 4° C.). The disrupted cells were centrifuged at 4000×g for 20 minutes at 4° C. The supernatant was loaded slowly on a glutathione-sepharose 4B column, which was equilibrated at 4° C. with a cell lysis buffer (1×PBS buffer (pH 7.4) containing 1 mM EDTA and 0.1 mM DTT). The column was washed with the lysis buffer until OD280 reached below 0.005. Then, 15-PGDH was eluted from the glutathione-sepharose 4B column at room temperature for 5 minutes by using the elution buffer (50 mM Tris-HCl (pH 8.0) containing 10 mM reduced glutathione, 1 mM EDTA and 0.1 mM DTT). The concentration and the purity of the purified enzyme were determined by SDS-PAGE.
<1-2> Assay for the Activities of 15-PGDH Inhibitors
The absorbance of the reaction mixture was recorded at 340 nm so that the activities of the derivatives according to the present invention as 15-PGDH inhibitors were determined from a standard curve prepared from the absorbance of various concentrations of NADH at 340 nm.
Broadly, the IC50 is the concentration needed to halve the response being measured. For the molecule `O=C1NC(=O)/C(=C/c2cccc(OCCC3CCCCC3)c2Cl)S1` [Derivative 34, 5-(2-chloro-3-(2-cyclohexylethoxy)benzylidene)thiazolidine-2,4-dione], 17.9 nM corresponded to half-maximal inhibition (IC50).
With `O=C1NC(=O)/C(=C/c2ccc(OCC3CCCC3)cc2)S1` [Derivative 35, 5-(4-(cyclopentylmethoxy)benzylidene)thiazolidine-2,4-dione] the figure was 42.5 nM.
As for `O=C1NC(=O)/C(=C/c2ccc(OCc3ccc(CCl)cc3)cc2)S1` [Derivative 36, 5-(4-(4-(chloromethyl)benzyloxy)benzylidene)thiazolidine-2,4-dione], the IC50 worked out at 124 nM.
In turn, `CC1CCC(COc2ccc(/C=C3\SC(=O)NC3=O)cc2)CC1` (stereo not drawn) [Derivative 37, 5-(4-((4-methylcyclohexyl)methoxy)benzylidene)thiazolidine-2,4-dione] came in with a concentration for half-maximal inhibition (IC50) of 66.4 nM.
`O=C1NC(=O)/C(=C/c2ccc(O)cc2)S1` [Derivative 39, 5-(4-hydroxybenzylidene)thiazolidine-2,4-dione] showed an IC50 of 10100 nM.
With `COc1ccc(/C=C2\SC(=O)NC2=O)cc1` [Derivative 40, 5-(4-methoxybenzylidene)thiazolidine-2,4-dione] the figure was 5670 nM.
As to `CCOc1ccc(/C=C2\SC(=O)NC2=O)cc1` [Derivative 41, 5-(4-ethoxybenzylidene)thiazolidine-2,4-dione], inhibition was half-maximal at 5820 nM (IC50).
The same measure for `O=C1NC(=O)/C(=C/c2ccc(OCC3CCCCC3)cc2)S1` [Derivative 42, 5-(4-(cyclohexylmethoxy)benzylidene)thiazolidine-2,4-dione]: 217 nM; for `CC1(COc2ccc(/C=C3\SC(=O)NC3=O)cc2)CCCCC1` [Derivative 43, 5-(4-((1-methylcyclohexyl)methoxy)benzylidene)thiazolidine-2,4-dione]: 547 nM.
Take `O=C1NC(=O)/C(=C/c2ccc(OCc3ccccc3)cc2)S1` [Derivative 44, 5-(4-(benzyloxy)benzylidene)thiazolidine-2,4-dione]: the concentration for half-maximal inhibition (IC50) was determined as 1040 nM.
With `O=C1NC(=O)/C(=C/c2ccc(OC3CCCCC3)cc2)S1` [Derivative 45, 5-(4-(cyclohexyloxy)benzylidene)thiazolidine-2,4-dione] the figure was 822 nM; with `O=C1NC(=O)/C(=C/c2ccc(OCCC3CCCCC3)cc2)S1` [Derivative 46, 5-(4-(2-cyclohexylethoxy)benzylidene)thiazolidine-2,4-dione], 50.9 nM.
The molecule `O=C1NC(=O)/C(=C/c2ccc(OCCC3CCCCC3)c([N+](=O)[O-])c2)S1` [Derivative 49, 5-(4-(2-cyclohexylethoxy)-3-nitrobenzylidene)thiazolidine-2,4-dione] came in with an IC50 of 59.5 nM.
The same measure for `Nc1cc(/C=C2\SC(=O)NC2=O)ccc1OCCC1CCCCC1` [Derivative 50, 5-(3-amino-4-(2-cyclohexylethoxy)benzylidene)thiazolidine-2,4-dione]: 286 nM; for `Cc1cc(/C=C2\SC(=O)NC2=O)ccc1OCC1CCCCC1` [Derivative 51, 5-(4-(2-cyclohexylmethoxy)-3-methylbenzylidene)thiazolidine-2,4-dione]: 49.8 nM; for `O=C1NC(=O)/C(=C/c2ccc(Oc3ccccc3)cc2)S1` [Derivative 54, 5-(4-phenoxybenzylidene)-1,3-thiazolidine-2,4-dione]: above 20000 nM.
Turning to `O=C1NC(=O)/C(=C/c2ccc(OCCc3ccccc3)cc2)S1` [Derivative 55, 5-[4-(2-phenylethoxy)benzylidene]-1,3-thiazolidine-2,4-dione], the midpoint of inhibition, the IC50, lay at 117 nM. This lies in the sub-micromolar range.
With `CCOc1cc(/C=C2\SC(=O)NC2=O)ccc1OCCC1CCCCC1` [Derivative 59, 5-(4-(2-cyclohexylethoxy)-3-ethoxybenzylidene)thiazolidine-2,4-dione] the figure was 259 nM.
With `COc1cc(OCCC2CCCCC2)ccc1/C=C1\SC(=O)NC1=O` [Derivative 60, 5-(4-(2-cyclohexylethoxy)-2-methoxybenzylidene)thiazolidine-2,4-dione], 3560 nM corresponded to half-maximal inhibition (IC50).
`O=C1NC(=O)/C(=C/c2ccc(OCC3COc4ccccc4O3)cc2)S1` (stereo not drawn) [Derivative 62, 5-(4-((2,3-Dihydrobenzo[b][1,4]dioxin-2-yl)methoxy)benzylidene) thiazolidine-2,4-dione]: the IC50 was 172 nM.
`O=C1NC(=O)/C(=C/c2cccc(OCC3CCCCC3)c2Cl)S1` [Derivative 63, 5-(2-chloro-3-(cyclohexylmethoxy)benzylidene)thiazolidine-2,4-dione] returned an IC50 of 57.6 nM.
In turn, `O=C1NC(=O)/C(=C/c2cccc(OCCCC3CCCCC3)c2Cl)S1` [Derivative 64, 5-(2-chloro-3-(cyclohexylpropoxy)benzylidene)thiazolidine-2,4-dione] returned an IC50 of 59 nM.
As for `CC1CCC(COc2ccc(/C=C3\SC(=O)NC3=O)cc2C(F)(F)F)CC1` (stereo not drawn) [Derivative 65, 5-[4-((4-methylcyclohexyl)methoxy)-3-(trifluoromethyl)benzylidene]thiazolidine-2,4-dione], 31.4 nM corresponded to half-maximal inhibition (IC50). This IC50 is about 1.9-fold lower than that of the molecule before.
The same measure for `COC(=O)C1CCC(COc2ccc(/C=C3\SC(=O)NC3=O)cc2)CC1` (stereo not drawn) [Derivative 66, methyl-4-((4-((2,4-dioxothiazolidine-5-ylidene)methyl)phenoxy)methyl)cyclohexane carboxylate]: 20.4 nM; for `COc1ccc(/C=C2\SC(=O)NC2=O)cc1OCCC1CCCCC1` [Derivative 67, 5-(3-(2-cyclohexylethoxy)-4-methoxybenzylidene)thiazolidine-2,4-dione]: 1160 nM; for `O=C1NC(=O)/C(=C/c2ccc(OCCc3ccccc3)c(Cl)c2)S1` [Derivative 69, 5-(3-chloro-4-phenylethoxybenzylidene)thiazolidine-2,4-dione]: 19.8 nM.
`O=C1NC(=O)/C(=C/c2ccc(OCCCc3ccccc3)c(Cl)c2)S1` [Derivative 70, 5-(3-chloro-4-(3-phenylpropoxy)benzylidene)thiazolidine-2,4-dione] came in with an IC50 of 38.1 nM.
The same measure for `O=C1NC(=O)/C(=C/c2cccc(OCCc3ccccc3)c2Cl)S1` [Derivative 73, 5-(2-chloro-3-phenylethoxybenzylidene)thiazolidine-2,4-dione]: 122 nM; for `O=C1NC(=O)/C(=C/c2cccc(OCCCc3ccccc3)c2Cl)S1` [Derivative 75, 5-(2-chloro-3-(3-phenylpropoxy)benzylidene)thiazolidine-2,4-dione]: 44.9 nM.
Molecule `O=C1NC(=O)/C(=C/c2ccc(OCc3ccc(-c4ccccc4)cc3)cc2)S1` [Derivative 76, 5-(4-(biphenyl-4-ylmethoxy)benzylidene)thiazolidine-2,4-dione] returned an IC50 of 814 nM.
For `O=C1NC(=O)/C(=C/c2cc(F)c(OCCC3CCCCC3)c(Cl)c2)S1` [Derivative 77, 5-(3-chloro-5-fluoro-4-(2-cyclohexylethoxy)benzylidene)thiazolidine-2,4-dione], the IC50 was 177 nM.
Molecule `COc1cc(/C=C2\SC(=O)NC2=O)cc(Cl)c1OCCC1CCCCC1` [Derivative 78, 5-(3-chloro-4-(2-cyclohexylethoxy)-5-methoxybenzylidene) thiazolidine-2,4-dione] gave an IC50 of 50.6 nM.
In turn, `O=C1NC(=O)/C(=C/c2ccc([N+](=O)[O-])c(OCCC3CCCCC3)c2)S1` [Derivative 79, 5-(3-(2-cyclohexylethoxy)-4-nitrobenzylidene)thiazolidine-2,4-dione] had an IC50 of 2820 nM.
Consider `COc1ccc(/C=C2\SC(=O)NC2=O)c(Cl)c1OCCC1CCCCC1` [Derivative 80, 5-(2-chloro-3-(2-cyclohexylethoxy)-4-methoxybenzylidene) thiazolidine-2,4-dione], for which the IC50 is 110 nM.
The molecule `O=C1NC(=O)/C(=C/c2ccc(OCCC3CCCCC3)cc2C(F)(F)F)S1` [Derivative 81, 5-(4-(2-cyclohexylethoxy)-2-(trifluoromethyl)benzylidene)thiazolidine-2,4-dione] showed an IC50 of 136 nM.
With `O=C1NC(=O)/C(=C/c2cc(OCCC3CCCCC3)ccc2[N+](=O)[O-])S1` [Derivative 83, 5-(5-(2-cyclohexylethoxy)-2-nitrobenzylidene)thiazolidine-2,4-dione] the figure was 6280 nM; with `O=C1NC(=O)/C(=C/c2ccc(OCc3ccccc3)cc2Cl)S1` [Derivative 85, 5-(4-(benzyloxy)-2-chlorobenzylidene)thiazolidine-2,4-dione], 487 nM; with `O=C1NC(=O)/C(=C/c2ccc(OCCc3ccccc3)cc2Cl)S1` [Derivative 86, 5-(2-chloro-4-phenylethoxybenzylidene)thiazolidine-2,4-dione], 178 nM.
For the molecule `O=C1NC(=O)/C(=C/c2ccc(OCCCc3ccccc3)cc2Cl)S1` [Derivative 87, 5-(2-chloro-4-phenylpropoxybenzylidene)thiazolidine-2,4-dione], the IC50 stood at 52 nM.
